# In US20240166643A1, “IMIDAZO[1,2-A]PYRIDINE COMPOUNDS AND THEIR USE IN THERAPY” (Imperial College Innovations Limited, priority 2020, published 2024):
# Legend:
# [1] = target: Human NMT1 (HsNMT1) (Homo sapiens, UniProt P30419); assay: biochemical
# [2] = tested on: Plasmodium falciparum 3D7; assay: SYBR Green assay, Plasmodium falciparum strain 3D7; format: cell-based; settings: P. falciparum strain 3D7, 96 h incubation, read-out: Pf EC50 strain 3D7
# [3] = tested on: SU-DHL-10 cells; assay: Cell cytotoxicity in SU-DHL-10 cell line (CellTiter-Glo); format: cell-based; settings: Homo sapiens, SU-DHL10; CellTiter-Glo, 48 h; read-out: SU-DHL-10 EC50
# Method: Assay (c): Cell Cytotoxicity in SU-DHL-10 Cell Line
# Cell Culture: SU-DHL-10 (ATCC CRL-2963) were cultured in RPMI-media (ATCC, 30-2001).
# Cultures were maintained by the addition of fresh medium and inoculum of 8.0×10^4 to 2.0×10^5 cells/mL. Subculturing was done when the cell density was between 1.0×10^6 and 2.0×10^6 cells/mL.
# Cell seeding: 5000 cells/well were plated in 384-white clear bottom plates (Greiner, 781098) for the assay in 20 μl growth media.
# Top dose: 1 mM stocks of each compound was prepared in 100% DMSO and thereafter diluted 333.33 fold in growth media to obtain 3 μM (0.3% DMSO) mid stock of each compound, from which 10 μl was added to assay wells (with 20 μl cells) for a final concentration of 1 μM (0.1% DMSO). For subsequent dose-response: 1 mM stock was diluted 3 fold in DMSO before subjecting to above dilution pattern to obtain final 0.1% DMSO concentration.
# Treatment: Cells were incubated with the compounds for 48 h at 37° C. in presence of 5% CO2.
# Assay Procedure: The assay plate and its contents were equilibrated at room temperature for approximately 30 minutes. CellTiter-Glo® Reagent was added equal to the volume (1;1) of cell culture medium present in each well. The contents were mixed for 5 minutes on an orbital shaker to induce cell lysis. The plate was allowed to incubate at room temperature for 10 minutes to stabilize luminescent signal. The luminescence was recorded with an integration time of 0.25 seconds in EnVision 2104 Multilabel Plate Reader (Perkin Elmer).
# Calculation: % Cytotoxicity was calculated considering 100% cell death in wells treated with 0.1% TritonX.
# [4] = target: Plasmodium vivax (Pv) NMT (Plasmodium vivax (strain Salvador I), UniProt A5K1A2); assay: biochemical
# Sequence of Plasmodium vivax (Pv) NMT (A5K1A2 1-410): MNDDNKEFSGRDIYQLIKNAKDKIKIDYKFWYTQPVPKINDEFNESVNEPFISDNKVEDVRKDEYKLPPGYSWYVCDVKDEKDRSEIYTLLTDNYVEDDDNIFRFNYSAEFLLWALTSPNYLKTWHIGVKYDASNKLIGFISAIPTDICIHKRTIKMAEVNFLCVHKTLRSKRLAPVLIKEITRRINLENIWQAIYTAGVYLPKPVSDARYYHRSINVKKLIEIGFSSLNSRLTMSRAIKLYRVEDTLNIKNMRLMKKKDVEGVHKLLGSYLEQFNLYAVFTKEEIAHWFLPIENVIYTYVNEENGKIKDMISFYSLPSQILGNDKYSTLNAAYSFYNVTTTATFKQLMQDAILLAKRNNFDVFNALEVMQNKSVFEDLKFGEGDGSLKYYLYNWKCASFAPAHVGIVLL
# [5] = in vitro; settings: male, Sprague-Dawley, rat, pooled cryopreserved rat hepatocytes, pH 7.4
# Sequence of Human NMT1 (HsNMT1) (P30419 whole entry, looked up): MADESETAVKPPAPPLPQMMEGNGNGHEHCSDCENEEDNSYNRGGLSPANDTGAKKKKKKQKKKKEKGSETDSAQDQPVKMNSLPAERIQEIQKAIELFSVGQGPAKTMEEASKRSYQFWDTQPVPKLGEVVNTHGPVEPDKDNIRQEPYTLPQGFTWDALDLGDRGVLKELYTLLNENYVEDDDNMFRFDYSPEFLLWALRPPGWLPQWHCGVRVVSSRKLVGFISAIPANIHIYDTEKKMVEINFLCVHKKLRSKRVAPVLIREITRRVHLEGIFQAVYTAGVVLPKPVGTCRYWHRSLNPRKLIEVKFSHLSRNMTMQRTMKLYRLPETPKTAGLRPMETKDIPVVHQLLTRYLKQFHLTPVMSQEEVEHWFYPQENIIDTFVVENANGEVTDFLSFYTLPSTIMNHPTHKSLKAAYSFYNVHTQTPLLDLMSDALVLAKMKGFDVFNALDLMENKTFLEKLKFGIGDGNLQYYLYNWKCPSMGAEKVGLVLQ
IC50 [1] [µM],Compound,EC50 [2] [µM],EC50 [3] [µM],IC50 [4] [µM],half-life at 1 µM [5] [h]
0.003,"CC1NCCN(c2ncc(Cl)c(N3CC(C(=O)NC(C)(C)c4cnc5ccccn45)C3)n2)C1C (stereo not shown) [Example 143, 1-(5-chloro-2-(2,3-dimethylpiperazin-1-yl)pyrimidin-4-yl)-N-(2-(Imidazo[1,2-a]pyridin-3-yl)propan-2-yl)azetidine-3-carboxamide]",–,0.005,–,–
0.003,"CCN(C(=O)C1CN(c2nc(N3CCNC[C@@H]3C)ncc2Cl)C1)C(C)(C)c1cnc2ccccn12 [Example 145, (S)-1-(5-chloro-2-(2-methylpiperazin-1-yl)pyrimidin-4-yl)-N-ethyl-N-(2-(imidazo[1,2-a]pyridin-3-yl)propan-2-yl)azetidine-3-carboxamide]",–,0.013,–,–
0.061,"CN(C(=O)C1CN(c2nc(N3CCNC4CC43)ncc2Cl)C1)C(C)(C)c1cnc2ccccn12 (stereo not shown) [Example 146, 1-(2-(2,5-diazabicyclo[4.1.0]heptan-2-yl)-5-chloropyrimidin-4-yl)-N-(2-(imidazo[1,2-a]pyridin-3-yl)propan-2-yl)-N-methylazetidine-3-carboxamide]",–,0.597,–,–
0.002,"CC[C@H]1CNCCN1c1ncc(Cl)c(N2CC(C(=O)NC(C)(C)c3cnc4ccccn34)C2)n1 [Example 147, (S)-1-(5-chloro-2-(2-ethylpiperazin-1-yl)pyrimidin-4-yl)-N-(2-(imidazo[1,2-a]pyridin-3-yl)propan-2-yl)azetidine-3-carboxamide]",–,0.012,–,–
0.002,"C[C@H]1CN(c2ncc(Cl)c(N3CC(C(=O)NC(C)(C)c4cnc5ccccn45)C3)n2)[C@@H](C)CN1 [Example 151, 1-(5-chloro-2-((2S,5S)-2,5-dimethylpiperazin-1-yl)pyrimidin-4-yl)-N-(2-(imidazo[1,2-a]pyridin-3-yl)propan-2-yl)azetidine-3-carboxamide]",–,0.015,–,–
0.008,"C[C@H]1CN(c2ncc(Cl)c(N3CC(C(=O)NC(C)(C)c4cnc5ccccn45)C3)n2)[C@@H](C)CN1C [Example 152, 1-(5-chloro-2-((2S,5S)-2,4,5-trimethylpiperazin-1-yl)pyrimidin-4-yl)-N-(2-(imidazo[1,2-a]pyridin-3-yl)propan-2-yl)azetidine-3-carboxamide]",–,0.306,–,–
0.003,"C[C@@H]1CN(c2ncc(Cl)c(N3CC(C(=O)NC(C)(C)c4cnc5ccccn45)C3)n2)[C@@H](C)CN1 [Example 153, 1-(5-chloro-2-((2S,5R)-2,5-dimethylpiperazin-1-yl)pyrimidin-4-yl)-N-(2-(imidazo[1,2-a]pyridin-3-yl)propan-2-yl)azetidine-3-carboxamide]",–,0.054,–,–
0.01,"C[C@@H]1CN(c2ncc(Cl)c(N3CC(C(=O)NC(C)(C)c4cnc5ccccn45)C3)n2)[C@@H](C)CN1C [Example 154, 1-(5-chloro-2-((2S,5R)-2,4,5-trimethylpiperazin-1-yl)pyrimidin-4-yl)-N-(2-(imidazo[1,2-a]pyridin-3-yl)propan-2-yl)azetidine-3-carboxamide]",–,0.453,–,–

# Second part, the compound before the results:
Compound,IC50 [1] [µM],EC50 [2] [µM],EC50 [3] [µM],IC50 [4] [µM],half-life at 1 µM [5] [h]
"C[C@@H]1CN(c2ncc(Cl)c(N3CC(C(=O)NC(C)(C)c4cnc5ccccn45)C3)n2)CCN1 [Example 1, 1-{5-chloro-2-[(3R)-3-methylpiperazin-1-y]pyrimidin-4-yl}-N-(2-{imidazo[1,2-a]pyridin-3-yl}propan-2-yl)azetidine-3-carboxamide]",0.003,0.0063,0.367,0.0066,–
"CN1CCN(c2cc(N3CC(C(=O)NC(C)(C)c4cnc5ccccn45)C3)c(F)cn2)CC1 [Example 4, 1-[5-fluoro-2-(4-methylpiperazin-1-yl)pyridin-4-yl]-N-(2-{imidazo[1,2-a]pyridin-3-yl}propan-2-yl)azetidine-3-carboxamide]",–,0.1,–,–,> 3
CC(C)(NC(=O)C1CN(c2nc(N3CCNCC3)ncc2Cl)C1)c1cnc2ccccn12 [Example 33],0.0035,0.018,0.878,0.0066,–
C[C@@H]1CN(c2ncc(Cl)c(N3CC(C(=O)NC(C)(C)c4cnc5ccccn45)C3)n2)C[C@H](C)N1 [Example 43],–,0.11,–,–,> 3
CC1CN(c2ncc(Cl)c(N3CC(C(=O)NC(C)(C)c4cnc5ccccn45)C3)n2)C[C@H](C)N1 (stereo partly shown) [Example 48],–,0.065,0.795,–,–
CC1CNCCN1c1ncc(Cl)c(N2CC(C(=O)N(C)C(C)(C)c3cnc4ccccn34)C2)n1 (stereo not shown) [Example 50],–,0.026,0.035,–,–
Cc1ccc2ncc(C(C)(C)NC(=O)C3CN(c4nc(N5CCN(C)CC5)ncc4F)C3)n2c1 [Example 60],–,0.24,–,0.11,2.41
CN1CCN(c2ncc(F)c(N3CC(C(=O)NC(C)(C)c4cnc5c(F)cccn45)C3)n2)CC1 [Example 61],–,0.26,–,0.013,> 3
CN1CCN(c2ncc(F)c(N3CC(C)(C(=O)NC(C)(C)c4cnc5ccccn45)C3)n2)CC1 [Example 65],–,> 1,–,0.09,2.41
Cc1cnc(N2CCN(C)CC2)nc1N1CC(C(=O)NC(C)(C)c2cnc3ccccn23)C1 [Example 66],–,0.32,–,0.029,> 3
Cc1ccc2ncc(C(C)(C)NC(=O)C3CN(c4nc(N5CCN(C)CC5)ncc4Cl)C3)n2c1 [Example 67],–,0.12,–,0.0056,> 3
CCN1CCN(c2ncc(Cl)c(N3CC(C(=O)NC(C)(C)c4cnc5ccccn45)C3)n2)CC1 [Example 70],–,0.41,–,0.0086,> 3
CN1CCN(c2ncc(Cl)c(N3CCC(C(=O)NC(C)(C)c4cnc5ccccn45)CC3)n2)CC1 [Example 77],–,> 1,–,0.074,1.49
"COc1cnc(N2C[C@@H](C)N(C)[C@@H](C)C2)nc1N1CC(C(=O)NC(C)(C)c2cnc3ccccn23)C1 [Example 88, N-(2-{imidazo[1,2-a]pyridin-3-yl}propan-2-yl)-1-{5-methoxy-2-[(3R,5S)-3,4,5-trimethylpiperazin-1-yl]pyrimidin-4-yl}azetidine-3-carboxamide]",–,0.076,–,–,> 3
"C[C@H]1CN(C)CCN1c1ncc(F)c(N2CC(C(=O)N(C)C(C)(C)c3cnc4ccccn34)C2)n1 [Example 108, 1-{2-[(2S)-2,4-dimethylpiperazin-1-yl]-5-fluoropyrimidin-4-yl}-N-(2-{imidazo[1,2-a]pyridin-3-yl}propan-2-yl)-N-methylazetidine-3-carboxamide]",–,0.2,–,–,0.967
"CC(C)(NC(=O)C1CN(c2nc(N3CC4CCC(C3)N4)ncc2Cl)C1)c1cnc2ccccn12 [Example 144, 1-(2-(3,8-diazabicyclo[3.2.1]octan-3-yl)-5-chloropyrimidin-4-yl)-N-(2-(imidazo[1,2-a]pyridin-3-yl)propan-2-yl)azetidine-3-carboxamide]",0.005,–,0.243,–,–
"CC[C@H]1CNCCN1c1ncc(Cl)c(N2CC(C(=O)N(C)C(C)(C)c3cnc4ccccn34)C2)n1 [Example 148, (S)-1-(5-chloro-2-(2-ethylpiperazin-1-yl)pyrimidin-4-yl)-N-(2-(Imidazo[1,2-a]pyridin-3-yl)propan-2-yl)-N-methylazetidine-3-carboxamide]",0.005,–,0.369,–,–
